Patent US8822206B2, “Device for high-throughput stimulation, immunostaining, and visualization of single cells” (The Johns Hopkins University, priority 2005, dated 2014)

Test system: NIH3T3 mouse fibroblasts
Test: Cell stimulation and anti-p65 immunofluorescence staining in the microfluidic device
Format: cell-based
Conditions: NIH3T3 mouse fibroblasts in device and on control slides; 10 ng/ml mouse TNF-alpha in media, 10 minutes stimulation
Excerpt: The device was fabricated as described in Example 1. The device was filled with sterile 0.1% gelatin with all of the valves open through an inlet port 11 to coat the parallel fluid channels to promote cell adhesion. Valves were primed with filtered, distilled water. Alternatively, filling may be done with the ports closed as trapped air can be pushed out of the gas-permeable PDMS with hydrostatic pressure. The device was flushed with […] the coating agent. Well-separated NIH3T3 mouse fibroblasts at a concentration of about 9 million cells per ml were introduced into the parallel fluid channels through an inlet port and the device was transferred to a standard 5% CO2, 37° C. cell culture incubator for 3-4 hours to allow the cells to adhere to the glass bottom of the parallel fluid channels.
Using the multiplexer to control flow through the reaction units, a selection of valves were closed to allow for exposure of only a portion of the cells to a stimulant. A syringe containing a solution of 10 ng/ml of mouse TNF-alpha in media was attached to an inlet port, and cells were stimulated, or not, for 10 minutes. […] After secondary antibody staining and washing with DPBS, cells were overlaid with mounting media or other antifade agent to minimize photobleaching, and imaged using fluorescence microscopy. […]

TNF-alpha
localization of p65 (anti-p65 immunofluorescence): localization of p65 to the nucleus
